# Test results as given in US11572590B2, “Methods for evaluating tumor cell spheroids using 3D microfluidic cell culture device” (Dana-Farber Cancer Institute, Inc., priority 2017, dated 2023).
# Read-outs that look alike come from different tables or passages of the source.
# Tests used:
# Test in all cases: SelectScreen Kinase Profiling, single point inhibition and IC50 for off-target kinases
# Format in all cases: biochemical
# [1] = biological target: off-target kinases (Homo sapiens, UniProt P43250); details: GRK6, ZLYTE, ATP Km app
# Chain of off-target kinases (Homo sapiens, UniProt P43250) (P43250 whole entry): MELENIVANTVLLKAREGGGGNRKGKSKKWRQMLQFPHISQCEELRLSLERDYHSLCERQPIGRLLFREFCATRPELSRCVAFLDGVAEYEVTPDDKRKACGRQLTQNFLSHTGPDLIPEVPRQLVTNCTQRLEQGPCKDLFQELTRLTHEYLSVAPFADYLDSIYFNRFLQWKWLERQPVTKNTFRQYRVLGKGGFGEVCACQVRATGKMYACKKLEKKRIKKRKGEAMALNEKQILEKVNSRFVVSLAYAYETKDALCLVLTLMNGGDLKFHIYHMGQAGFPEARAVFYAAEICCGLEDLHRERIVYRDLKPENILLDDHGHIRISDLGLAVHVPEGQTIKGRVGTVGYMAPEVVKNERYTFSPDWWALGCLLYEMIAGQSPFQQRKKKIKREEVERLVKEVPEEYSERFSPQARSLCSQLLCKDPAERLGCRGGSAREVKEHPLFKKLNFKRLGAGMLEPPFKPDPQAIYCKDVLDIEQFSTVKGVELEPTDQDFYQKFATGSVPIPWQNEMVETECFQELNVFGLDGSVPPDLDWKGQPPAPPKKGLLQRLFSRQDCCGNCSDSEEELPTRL
# [2] = biological target: off-target kinases (Homo sapiens, UniProt P50750)
# Chain of off-target kinases (Homo sapiens, UniProt P50750) (P50750 whole entry): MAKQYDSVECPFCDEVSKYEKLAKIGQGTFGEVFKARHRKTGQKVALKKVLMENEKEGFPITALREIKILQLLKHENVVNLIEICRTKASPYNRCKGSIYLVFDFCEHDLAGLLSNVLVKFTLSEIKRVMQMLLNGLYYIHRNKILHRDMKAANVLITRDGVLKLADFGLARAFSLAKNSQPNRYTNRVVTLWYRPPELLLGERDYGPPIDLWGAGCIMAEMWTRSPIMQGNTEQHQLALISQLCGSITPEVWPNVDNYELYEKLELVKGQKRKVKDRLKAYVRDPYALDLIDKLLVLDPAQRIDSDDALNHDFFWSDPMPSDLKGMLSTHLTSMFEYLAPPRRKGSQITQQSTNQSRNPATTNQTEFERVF
# [3] = biological target: off-target kinases (Homo sapiens, UniProt P00519, E255K); details: ABL1 E255K, ATP Km app, ZLYTE
# Chain of off-target kinases (Homo sapiens, UniProt P00519, E255K) (P00519 whole entry E255K): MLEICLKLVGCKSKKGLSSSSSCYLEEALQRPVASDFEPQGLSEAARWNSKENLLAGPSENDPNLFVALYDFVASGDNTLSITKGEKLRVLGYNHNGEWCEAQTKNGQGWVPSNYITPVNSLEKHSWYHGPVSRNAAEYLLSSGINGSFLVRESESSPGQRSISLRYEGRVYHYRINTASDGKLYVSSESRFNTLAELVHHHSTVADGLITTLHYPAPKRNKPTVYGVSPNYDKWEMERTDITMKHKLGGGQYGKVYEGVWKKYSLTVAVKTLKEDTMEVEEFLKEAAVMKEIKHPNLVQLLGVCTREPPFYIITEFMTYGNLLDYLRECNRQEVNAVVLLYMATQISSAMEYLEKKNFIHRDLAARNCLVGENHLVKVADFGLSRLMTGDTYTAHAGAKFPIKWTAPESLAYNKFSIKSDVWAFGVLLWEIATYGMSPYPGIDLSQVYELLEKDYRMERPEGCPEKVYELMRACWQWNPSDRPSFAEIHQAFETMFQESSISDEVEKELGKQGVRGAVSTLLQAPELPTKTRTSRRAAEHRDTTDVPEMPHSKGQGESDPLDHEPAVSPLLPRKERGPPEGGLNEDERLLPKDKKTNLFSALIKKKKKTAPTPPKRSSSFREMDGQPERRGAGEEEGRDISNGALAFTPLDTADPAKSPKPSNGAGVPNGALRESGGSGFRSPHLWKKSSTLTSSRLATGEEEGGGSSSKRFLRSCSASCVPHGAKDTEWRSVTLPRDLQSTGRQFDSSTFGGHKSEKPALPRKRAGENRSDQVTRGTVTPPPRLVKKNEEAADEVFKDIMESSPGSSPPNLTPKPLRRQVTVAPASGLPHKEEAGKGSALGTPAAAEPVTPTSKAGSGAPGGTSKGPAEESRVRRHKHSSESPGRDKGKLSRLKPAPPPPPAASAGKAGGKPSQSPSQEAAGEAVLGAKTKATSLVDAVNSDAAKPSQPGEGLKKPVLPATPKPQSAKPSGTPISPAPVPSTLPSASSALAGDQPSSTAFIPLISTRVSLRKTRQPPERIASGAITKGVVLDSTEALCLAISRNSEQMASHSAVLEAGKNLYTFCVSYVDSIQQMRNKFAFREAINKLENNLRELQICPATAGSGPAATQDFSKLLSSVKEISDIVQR
# [4] = biological target: off-target kinases (Homo sapiens, UniProt P27037); details: ACVR2A, LanthaScreen Binding
# Chain of off-target kinases (Homo sapiens, UniProt P27037) (P27037 20-513): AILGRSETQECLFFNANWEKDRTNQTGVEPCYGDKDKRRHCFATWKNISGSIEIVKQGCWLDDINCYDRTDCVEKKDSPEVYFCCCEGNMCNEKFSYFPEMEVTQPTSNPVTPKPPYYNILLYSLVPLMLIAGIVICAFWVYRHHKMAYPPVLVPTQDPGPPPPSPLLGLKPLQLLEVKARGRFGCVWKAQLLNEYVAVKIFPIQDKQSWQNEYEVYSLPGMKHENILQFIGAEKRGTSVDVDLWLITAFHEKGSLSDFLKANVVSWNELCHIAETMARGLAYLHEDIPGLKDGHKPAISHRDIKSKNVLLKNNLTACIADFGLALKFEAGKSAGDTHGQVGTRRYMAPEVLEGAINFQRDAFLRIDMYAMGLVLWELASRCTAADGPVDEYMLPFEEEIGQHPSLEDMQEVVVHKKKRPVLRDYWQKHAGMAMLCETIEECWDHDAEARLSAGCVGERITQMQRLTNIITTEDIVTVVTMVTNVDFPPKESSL
# [5] = biological target: off-target kinases (Homo sapiens, UniProt Q16512); details: PKN1 (PRK1); Cmpd1 1000 μM; ATP Km app; ZLYTE
# [6] = biological target: off-target kinases (Homo sapiens, UniProt Q07912); details: TNK2 (ACK), LanthaScreen Binding
# [7] = biological target: T1, off-target kinases (Homo sapiens, UniProt P21709); details: EPHA1, ZLYTE, ATP Km app
# T1 sequence (P21709 26-976): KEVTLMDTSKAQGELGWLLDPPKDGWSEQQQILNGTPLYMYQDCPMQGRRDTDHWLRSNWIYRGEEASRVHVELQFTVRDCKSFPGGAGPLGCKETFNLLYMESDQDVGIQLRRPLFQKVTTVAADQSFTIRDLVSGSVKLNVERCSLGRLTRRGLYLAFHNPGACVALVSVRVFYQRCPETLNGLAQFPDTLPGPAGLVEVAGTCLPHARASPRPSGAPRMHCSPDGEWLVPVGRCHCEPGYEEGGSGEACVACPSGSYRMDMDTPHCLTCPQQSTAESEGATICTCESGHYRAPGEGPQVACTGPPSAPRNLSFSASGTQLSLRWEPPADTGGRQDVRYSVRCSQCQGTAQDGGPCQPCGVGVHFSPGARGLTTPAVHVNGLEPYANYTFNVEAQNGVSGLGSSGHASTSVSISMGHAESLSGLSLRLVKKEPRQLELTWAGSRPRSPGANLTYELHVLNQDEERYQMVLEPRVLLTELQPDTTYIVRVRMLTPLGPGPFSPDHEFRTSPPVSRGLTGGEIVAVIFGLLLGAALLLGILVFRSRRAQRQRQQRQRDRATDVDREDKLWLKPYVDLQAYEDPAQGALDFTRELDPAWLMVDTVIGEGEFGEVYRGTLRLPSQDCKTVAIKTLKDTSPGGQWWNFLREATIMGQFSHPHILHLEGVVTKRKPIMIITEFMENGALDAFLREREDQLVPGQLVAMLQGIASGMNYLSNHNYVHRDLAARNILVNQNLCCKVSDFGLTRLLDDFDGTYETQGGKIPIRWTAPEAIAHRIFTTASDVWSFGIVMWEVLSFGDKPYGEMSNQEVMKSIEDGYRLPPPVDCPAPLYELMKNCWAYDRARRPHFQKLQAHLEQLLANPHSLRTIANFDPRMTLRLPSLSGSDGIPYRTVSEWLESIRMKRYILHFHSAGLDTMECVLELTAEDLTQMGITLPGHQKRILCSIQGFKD
# [8] = biological target: off-target kinases (Homo sapiens, UniProt Q9Y3S1); details: WNK2, LanthaScreen Binding
# Chain of off-target kinases (Homo sapiens, UniProt Q9Y3S1) (Q9Y3S1 whole entry): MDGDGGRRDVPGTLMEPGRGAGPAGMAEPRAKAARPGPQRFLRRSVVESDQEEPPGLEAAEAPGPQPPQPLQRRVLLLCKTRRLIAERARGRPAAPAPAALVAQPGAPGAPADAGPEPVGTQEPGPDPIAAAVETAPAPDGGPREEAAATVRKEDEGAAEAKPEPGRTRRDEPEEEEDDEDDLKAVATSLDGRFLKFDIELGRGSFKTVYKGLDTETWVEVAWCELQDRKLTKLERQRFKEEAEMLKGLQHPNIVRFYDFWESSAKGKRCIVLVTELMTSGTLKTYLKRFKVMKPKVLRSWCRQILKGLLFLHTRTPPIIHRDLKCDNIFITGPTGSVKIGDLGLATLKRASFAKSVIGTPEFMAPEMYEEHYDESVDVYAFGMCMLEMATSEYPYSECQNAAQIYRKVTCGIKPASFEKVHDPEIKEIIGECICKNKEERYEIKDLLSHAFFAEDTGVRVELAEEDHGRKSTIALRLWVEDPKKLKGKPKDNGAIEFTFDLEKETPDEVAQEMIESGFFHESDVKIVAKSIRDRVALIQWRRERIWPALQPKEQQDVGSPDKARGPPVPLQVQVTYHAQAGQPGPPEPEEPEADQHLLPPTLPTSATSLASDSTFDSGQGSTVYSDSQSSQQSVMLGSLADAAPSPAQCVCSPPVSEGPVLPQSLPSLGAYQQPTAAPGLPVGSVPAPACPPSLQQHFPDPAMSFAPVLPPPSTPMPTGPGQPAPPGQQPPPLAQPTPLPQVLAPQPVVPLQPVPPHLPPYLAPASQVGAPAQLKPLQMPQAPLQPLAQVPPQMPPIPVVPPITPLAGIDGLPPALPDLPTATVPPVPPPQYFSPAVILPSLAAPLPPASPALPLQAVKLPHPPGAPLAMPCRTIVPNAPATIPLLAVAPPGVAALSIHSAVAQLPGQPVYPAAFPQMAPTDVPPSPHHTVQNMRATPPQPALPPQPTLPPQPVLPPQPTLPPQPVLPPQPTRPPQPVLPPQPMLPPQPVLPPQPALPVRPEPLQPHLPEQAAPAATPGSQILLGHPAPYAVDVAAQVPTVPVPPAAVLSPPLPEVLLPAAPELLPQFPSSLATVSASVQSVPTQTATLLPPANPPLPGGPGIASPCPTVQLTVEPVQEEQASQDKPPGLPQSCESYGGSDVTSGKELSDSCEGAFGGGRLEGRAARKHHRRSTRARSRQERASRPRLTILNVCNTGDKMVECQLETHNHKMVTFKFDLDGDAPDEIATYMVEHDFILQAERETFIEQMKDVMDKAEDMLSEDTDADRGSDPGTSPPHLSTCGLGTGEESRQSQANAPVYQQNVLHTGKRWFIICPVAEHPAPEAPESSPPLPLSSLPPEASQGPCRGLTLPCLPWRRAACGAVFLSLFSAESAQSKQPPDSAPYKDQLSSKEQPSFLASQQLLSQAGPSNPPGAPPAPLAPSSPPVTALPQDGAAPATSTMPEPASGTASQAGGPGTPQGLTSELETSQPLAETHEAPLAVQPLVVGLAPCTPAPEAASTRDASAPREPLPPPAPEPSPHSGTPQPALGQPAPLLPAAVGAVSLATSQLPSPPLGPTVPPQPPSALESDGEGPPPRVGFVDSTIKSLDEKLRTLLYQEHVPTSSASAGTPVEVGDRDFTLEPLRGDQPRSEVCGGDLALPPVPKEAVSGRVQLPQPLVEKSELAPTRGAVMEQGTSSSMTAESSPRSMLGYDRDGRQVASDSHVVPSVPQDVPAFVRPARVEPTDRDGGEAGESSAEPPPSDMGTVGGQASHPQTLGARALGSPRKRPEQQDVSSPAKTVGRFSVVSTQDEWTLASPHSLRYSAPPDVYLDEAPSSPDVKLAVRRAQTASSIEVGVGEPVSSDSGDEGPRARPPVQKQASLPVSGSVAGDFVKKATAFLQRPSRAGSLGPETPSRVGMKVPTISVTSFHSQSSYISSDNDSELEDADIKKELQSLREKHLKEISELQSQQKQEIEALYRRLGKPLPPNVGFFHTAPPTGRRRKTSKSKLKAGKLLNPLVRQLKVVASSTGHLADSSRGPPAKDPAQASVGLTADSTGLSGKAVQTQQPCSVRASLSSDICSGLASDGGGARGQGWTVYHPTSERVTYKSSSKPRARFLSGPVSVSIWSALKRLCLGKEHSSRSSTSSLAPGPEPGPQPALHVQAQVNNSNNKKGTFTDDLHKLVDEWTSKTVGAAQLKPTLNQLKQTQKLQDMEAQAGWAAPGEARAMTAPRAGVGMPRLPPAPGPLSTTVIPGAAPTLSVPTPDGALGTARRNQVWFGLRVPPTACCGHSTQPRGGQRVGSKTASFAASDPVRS
smiles,measurement,setting,value
"N#Cc1cc(-c2ncnc(Nc3ccc(N4CCN(C5COC5)CC4)cc3)n2)ccc1OC1CCOCC1 [Compound 1, 5-(4-((4-(4-(oxetan-3-yl)piperazin-1-yl)phenyl)amino)-1,3,5-triazin-2-yl)-2-((tetrahydro-2H-pyran-4-yl)oxy)benzonitrile]",inhibition,[1]; read-out: % Inhibition 1,2%
same,inhibition,[1]; read-out: % Inhibition 2,2%
same,inhibition,[1]; read-out: % Inhibition Avg,2%
same,inhibition,"[2]; CDK9 (Inactive), LanthaScreen Binding, read-out: % Inhibition 1",8%
same,inhibition,"[2]; CDK9 (Inactive), LanthaScreen Binding, read-out: % Inhibition 2",13%
same,inhibition,"[2]; CDK9 (Inactive), LanthaScreen Binding, read-out: % Inhibition Avg",10%
same,inhibition,"[2]; CDK9/cyclin K, LanthaScreen Binding, read-out: % Inhibition 1",11%
same,inhibition,"[2]; CDK9/cyclin K, LanthaScreen Binding, read-out: % Inhibition 2",9%
same,inhibition,"[2]; CDK9/cyclin K, LanthaScreen Binding, read-out: % Inhibition Avg",10%
same,inhibition,"[2]; CDK9/cyclin T1, Adapta, ATP Km app, read-out: % Inhibition 1",18%
same,inhibition,"[2]; CDK9/cyclin T1, Adapta, ATP Km app, read-out: % Inhibition 2",22%
same,inhibition,"[2]; CDK9/cyclin T1, Adapta, ATP Km app, read-out: % Inhibition Avg",20%
same,inhibition,[3]; read-out: % Inhibition 1,53%
same,inhibition,[3]; read-out: % Inhibition 2,50%
same,inhibition,[3]; read-out: % Inhibition Avg,51%
same,inhibition,[4]; read-out: % Inhibition 1,23%
same,inhibition,[4]; read-out: % Inhibition 2,21%
same,inhibition,[4]; read-out: % Inhibition Avg,22%
same,% Inhibition 1,[5],−6%
same,% Inhibition 2,[5],−4%
same,% Inhibition Avg,[5],−5%
same,inhibition,[6]; read-out: % Inhibition 1,25%
same,inhibition,[6]; read-out: % Inhibition 2,26%
same,inhibition,[6]; read-out: % Inhibition Avg,25%
same,inhibition,[7]; read-out: % Inhibition 1,29%
same,inhibition,[7]; read-out: % Inhibition 2,24%
same,inhibition,[7]; read-out: % Inhibition Avg,27%
same,inhibition,[8]; read-out: % Inhibition 1,-4%
same,inhibition,[8]; read-out: % Inhibition 2,5%
same,inhibition,[8]; read-out: % Inhibition Avg,1%
